Target: T1, Recombinant human JARID1B/KDM5B (Homo sapiens, UniProt Q9UGL1)
T1 construct: purchased Active Motif 31432; host or cells: Sf9 insect cells
Test: LANCE Ultra TR-FRET JARID1B (KDM5B) demethylase inhibition assay
Assay type: biochemical
Settings: 0.1 uM of test-compounds, FLAG-JARID1B, 500 nM biotinylated H3K4me3 peptide substrate, 30 min at room temperature
Text: FLAG-tagged JARID1B (also known as KDM5B) protein was screened against 49 compounds. For this compound screening, LANCE Ultra time-resolved fluorescence resonance energy transfer (TR-FRET) assay was employed using a europoium (Eu)-labeled antibody that can specifically recognize mono- or dimethylated peptides (H3K4me2/1) and ULight-streptavidin (ULight-SA), a small molecule fluorescent dye. When irradiated at 340 nm, the energy from the Eu donor is transferred to the ULight acceptor dye which, in turn, emits light primarily at 665 nm. The ratio between the intensity of primary emission at 665 nm and that of secondary emission at […] was used to quantify the level of lysine methylation. As JARID1B removes more methyl moieties from tri-methylated substrate peptides (H3K4me3), the ratio increases until the enzyme reaction is terminated. In case, therefore, the compounds disrupt the enzymatic activity completely, the ratio becomes equal to a background value.
Recombinant human JARID1B/KDM5B (accession number NP_006609) of molecular weight 179.9 KDa was expressed in Sf9 insect cells and contains an N-terminal FLAG tag. The enzyme was obtained from Active Motif (Catalog No. 31432). The tri-methylated histone substrate peptide of purity greater than 95% was a synthetic peptide in which the first 21 amino acids correspond to the human histone H3 sequence with three extra amino acids and a biotin motif (GGK-biotin) linked to the C-terminus [sequence: ART-K(Me3)-QTARKSTGGKAPRKQLA-GGK-biotin-OH], (AnaSpec, Fremont, Calif. Catalog. No. ANA-1413). The reference inhibitor compound tranylcypromine (or trans-2-phenylcyclopropylamine hydrochloride, also known as, 2-PCPA) was purchased from Sigma (St. Louis, Mo. Cat. no. P8511). ULight-labeled streptavidin (ULight-SA, Catalog no. TRF0102), Eu-W1024-labeled anti-methyl-Histone H3 Lysine 4 (H3K4me1-2) Antibody (Catalog no. TRF0402), and LANCE detection buffer 10× (Catalog no. CR97-100) were obtained from PerkinElmer (Montreal, Quebec, Canada). The TR-FRET experiments were carried out in white, low-volume 384-wellplates purchased from PerkinElmer (ProxiPlate_-384 Plus, Catalog no. 6008280).
The TR-FRET signal was measured in the presence both of the bio-H3K4me3 peptide and FLAG-JARID1B by detecting any H3K4me2/1 peptide produced in the assay system. Assays using only the bio-H3K4me2 peptide were served as a positive control. Robust enzymatic progressions were observed by using JARID1B at concentrations ranging from 10 to 30 nM. In a typical TR-FRET experiment, JARID1B was pre-incubated with or without 0.1 uM of test-compounds (containing 1% DMSO final) for 5 min. The enzymatic reactions were initiated by the addition of 500 nM biotinylated H3K4me3 peptide substrate plus 500 uM of 2-OG 25 uM Fe(II) and 2 mM ascorbate. The reaction buffer also contained 50 mM Hepes (pH7.5), 0.01% (v/v) Tween 20, and 50 mM NaCl. The reaction mixture was incubated for 30 min at room temperature before reading on an EnVision plate reader (PerkinElmer, Waltham, Mass.).

T1 sequence (Q9UGL1 whole entry): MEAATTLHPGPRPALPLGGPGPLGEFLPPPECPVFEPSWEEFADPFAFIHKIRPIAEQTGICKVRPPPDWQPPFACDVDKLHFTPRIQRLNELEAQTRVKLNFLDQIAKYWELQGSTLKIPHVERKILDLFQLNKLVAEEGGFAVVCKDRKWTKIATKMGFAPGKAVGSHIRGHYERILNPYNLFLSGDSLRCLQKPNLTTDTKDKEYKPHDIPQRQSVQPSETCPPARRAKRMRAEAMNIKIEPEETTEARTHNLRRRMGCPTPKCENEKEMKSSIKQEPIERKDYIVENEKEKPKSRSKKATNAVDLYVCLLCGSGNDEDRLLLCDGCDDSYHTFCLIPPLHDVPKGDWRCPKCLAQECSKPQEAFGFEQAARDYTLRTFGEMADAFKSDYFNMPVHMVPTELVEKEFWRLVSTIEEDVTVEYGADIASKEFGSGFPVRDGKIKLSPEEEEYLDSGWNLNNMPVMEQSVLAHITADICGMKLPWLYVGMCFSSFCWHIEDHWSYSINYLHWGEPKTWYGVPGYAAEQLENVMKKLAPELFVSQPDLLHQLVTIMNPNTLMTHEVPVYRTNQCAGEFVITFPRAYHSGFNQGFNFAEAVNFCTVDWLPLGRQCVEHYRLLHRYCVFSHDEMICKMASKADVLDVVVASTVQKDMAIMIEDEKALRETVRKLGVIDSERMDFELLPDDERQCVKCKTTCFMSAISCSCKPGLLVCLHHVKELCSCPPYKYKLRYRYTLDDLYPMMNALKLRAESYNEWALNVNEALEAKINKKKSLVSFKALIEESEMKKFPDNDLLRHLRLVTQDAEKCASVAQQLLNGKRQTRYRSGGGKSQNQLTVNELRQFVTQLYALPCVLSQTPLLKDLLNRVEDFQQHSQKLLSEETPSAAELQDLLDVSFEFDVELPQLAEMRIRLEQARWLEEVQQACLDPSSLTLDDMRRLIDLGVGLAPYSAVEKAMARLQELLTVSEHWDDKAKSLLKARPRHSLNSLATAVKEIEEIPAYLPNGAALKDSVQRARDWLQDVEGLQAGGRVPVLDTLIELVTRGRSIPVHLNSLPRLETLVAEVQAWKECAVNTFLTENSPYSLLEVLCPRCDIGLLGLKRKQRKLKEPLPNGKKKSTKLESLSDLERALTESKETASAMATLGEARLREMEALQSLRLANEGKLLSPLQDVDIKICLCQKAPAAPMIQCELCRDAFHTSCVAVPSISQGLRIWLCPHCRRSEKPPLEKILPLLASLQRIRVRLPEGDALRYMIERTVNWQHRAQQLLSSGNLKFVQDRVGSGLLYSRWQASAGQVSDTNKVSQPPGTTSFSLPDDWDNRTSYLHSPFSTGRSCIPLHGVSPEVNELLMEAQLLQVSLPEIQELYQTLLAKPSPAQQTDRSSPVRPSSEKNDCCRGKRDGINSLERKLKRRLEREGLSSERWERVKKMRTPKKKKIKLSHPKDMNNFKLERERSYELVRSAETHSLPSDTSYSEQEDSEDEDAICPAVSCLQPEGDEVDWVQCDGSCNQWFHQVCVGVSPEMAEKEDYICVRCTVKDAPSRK

Row | inhibition at 0.1 µM [%] | SMILES
1 | 20 to 50 | CN1CCN(Cc2ccc(-c3cn(-c4nccc5c(=O)[nH]cnc45)nc3N)cc2)CC1 [Compound 33, 8-(3-amino-4-(4-((4-methylpiperazin-1-yl)methyl)phenyl)-1H-pyrazol-1-yl)pyrido[3,4-d]pyrimidin-4(3H)-one]
2 | 20 to 50 | Nc1nn(-c2nccc3c(=O)[nH]cnc23)cc1-c1ccc(CN2CCCC2)cc1 [Compound 34, 8-(3-amino-4-(4-(pyrrolidin-1-ylmethyl)phenyl)-1H-pyrazol-1-yl)pyrido[3,4-d]pyrimidin-4(3H)-one]
3 | 20 to 50 | Nc1nn(-c2nccc3c(=O)[nH]cnc23)cc1-c1cnn(C2CCCC2)c1 [Compound 35, 8-(3-amino-1′-cyclopentyl-1H,1′H-[4,4′-bipyrazol]-1-yl)pyrido[3,4-d]pyrimidin-4(3H)-one]
4 | 20 to 50 | Nc1nn(-c2nccc3c(=O)[nH]cnc23)cc1-c1cccc(CO)c1 [Compound 36, 8-(3-amino-4-(3-(hydroxymethyl)phenyl)-1H-pyrazol-1-yl)pyrido[3,4-d]pyrimidin-4(3H)-one]
5 | < 20 | CN1CCN(Cc2cccc(-c3cn(-c4nccc5c(=O)[nH]cnc45)nc3N)c2)CC1 [Compound 37, 8-(3-amino-4-(3-((4-methylpiperazin-1-yl)methyl)phenyl)-1H-pyrazol-1-yl)pyrido[3,4-d]pyrimidin-4(3H)-one]
6 | ≥ 50 | O=c1[nH]cnc2c(-c3csc(NCCO)n3)nccc12 [Compound 38, 8-(2-((2-hydroxyethyl)amino)thiazol-4-yl)pyrido[3,4-d]pyrimidin-4(3H)-one]
7 | ≥ 50 | C[C@H](O)CNc1nc(-c2nccc3c(=O)[nH]cnc23)cs1 [Compound 39, (S)-8-(2-((2-hydroxypropyl)amino)thiazol-4-yl)pyrido[3,4-d]pyrimidin-4(3H)-one]
8 | ≥ 50 | C[C@@H](O)CNc1nc(-c2nccc3c(=O)[nH]cnc23)cs1 [Compound 40, (R)-8-(2-((2-hydroxypropyl)amino)thiazol-4-yl)pyrido[3,4-d]pyrimidin-4(3H)-one]
9 | ≥ 50 | O=c1[nH]cnc2c(-c3csc(NCC4CCCO4)n3)nccc12 (centres unmarked) [Compound 41, 8-(2-(((tetrahydrofuran-2-yl)methyl)amino)thiazol-4-yl)pyrido[3,4-d]pyrimidin-4(3H)-one]
10 | ≥ 50 | COCCNc1nc(-c2nccc3c(=O)[nH]cnc23)cs1 [Compound 42, 8-(2-((2-methoxyethyl)amino)thiazol-4-yl)pyrido[3,4-d]pyrimidin-4(3H)-one]
11 | 20 to 50 | CN(C)CCNc1nc(-c2nccc3c(=O)[nH]cnc23)cs1 [Compound 43, 8-(2-((2-(dimethylamino)ethyl)amino)thiazol-4-yl)pyrido[3,4-d]pyrimidin-4(3H)-one]
12 | 20 to 50 | NCCNc1nc(-c2nccc3c(=O)[nH]cnc23)cs1 [Compound 44, 8-(2-((2-aminoethyl)amino)thiazol-4-yl)pyrido[3,4-d]pyrimidin-4(3H)-one]
13 | 20 to 50 | CN1CCN(CCNc2nc(-c3nccc4c(=O)[nH]cnc34)cs2)CC1 [Compound 45, 8-(2-((2-(4-methylpiperazin-1-yl)ethyl)amino)thiazol-4-yl)pyrido[3,4-d]pyrimidin-4(3H)-one]
14 | 20 to 50 | O=c1[nH]cnc2c(-c3csc(NCCCO)n3)nccc12 [Compound 46, 8-(2-((3-hydroxypropyl)amino)thiazol-4-yl)pyrido[3,4-d]pyrimidin-4(3H)-one]
15 | 20 to 50 | CN(C)CCCNc1nc(-c2nccc3c(=O)[nH]cnc23)cs1 [Compound 47, 8-(2-((3-(dimethylamino)propyl)amino)thiazol-4-yl)pyrido[3,4-d]pyrimidin-4(3H)-one]
16 | 20 to 50 | CN1CCCC1CCNc1nc(-c2nccc3c(=O)[nH]cnc23)cs1 (centres unmarked) [Compound 48, 8-(2-((2-(1-methylpyrrolidin-2-yl)ethyl)amino)thiazol-4-yl)pyrido[3,4-d]pyrimidin-4(3H)-one]

Row | inhibition at 0.1 µM [%] | SMILES
17 | 20 to 50 | O=c1[nH]cnc2c(-c3csc(NC4CCNCC4)n3)nccc12 [Compound 49, 8-(2-(piperidin-4-ylamino)thiazol-4-yl)pyrido[3,4-d]pyrimidin-4(3H)-one]
18 | 20 to 50 | CN1CCC(Nc2nc(-c3nccc4c(=O)[nH]cnc34)cs2)CC1 [Compound 50, 8-(2-((1-methylpiperidin-4-yl)amino)thiazol-4-yl)pyrido[3,4-d]pyrimidin-4(3H)-one]
19 | ≥ 50 | O=c1[nH]cnc2c(-c3csc(NCC4CCN(CCO)CC4)n3)nccc12 [Compound 51, 8-(2-(((1-(2-hydroxyethyl)piperidin-4-yl)methyl)amino)thiazol-4-yl)pyrido[3,4-d]pyrimidin-4(3H)-one]
20 | ≥ 50 | O=c1[nH]cnc2c(-c3csc(NCC4CCN(Cc5ccccc5)CC4)n3)nccc12 [Compound 52, 8-(2-(((1-benzylpiperidin-4-yl)methyl)amino)thiazol-4-yl)pyrido[3,4-d]pyrimidin-4(3H)-one]
21 | ≥ 50 | COCCN1CCC(CNc2nc(-c3nccc4c(=O)[nH]cnc34)cs2)CC1 [Compound 53, 8-(2-(((1-(2-methoxyethyl)piperidin-4-yl)methyl)amino)thiazol-4-yl)pyrido[3,4-d]pyrimidin-4(3H)-one]
22 | ≥ 50 | O=c1[nH]cnc2c(-c3csc(NCC4CCN(C5CCCC5)CC4)n3)nccc12 [Compound 54, 8-(2-(((1-cyclopentylpiperidin-4-yl)methyl)amino)thiazol-4-yl)pyrido[3,4-d]pyrimidin-4(3H)-one]
23 | ≥ 50 | CC(C)N1CCC(CNc2nc(-c3nccc4c(=O)[nH]cnc34)cs2)CC1 [Compound 55, 8-(2-(((1-isopropylpiperidin-4-yl)methyl)amino)thiazol-4-yl)pyrido[3,4-d]pyrimidin-4(3H)-one]
24 | ≥ 50 | O=c1[nH]cnc2c(-c3csc(NCC4CCNCC4)n3)nccc12 [Compound 56, 8-(2-((piperidin-4-ylmethyl)amino)thiazol-4-yl)pyrido[3,4-d]pyrimidin-4(3H)-one]
25 | 20 to 50 | N[C@H]1CC[C@@H](Nc2nc(-c3nccc4c(=O)[nH]cnc34)cs2)CC1 [Compound 57, 8-(2-(((1s,4s)-4-aminocyclohexyl)amino)thiazol-4-yl)pyrido[3,4-d]pyrimidin-4(3H)-one]
26 | 20 to 50 | CN1CCOC(CNc2nc(-c3nccc4c(=O)[nH]cnc34)cs2)C1 (centres unmarked) [Compound 58, 8-(2-(((4-methylmorpholin-2-yl)methyl)amino)thiazol-4-yl)pyrido[3,4-d]pyrimidin-4(3H)-one]
27 | 20 to 50 | CN1CCC(CNc2nc(-c3nccc4c(=O)[nH]cnc34)cs2)C1 (centres unmarked) [Compound 59, 8-(2-(((1-methylpyrrolidin-3-yl)methyl)amino)thiazol-4-yl)pyrido[3,4-d]pyrimidin-4(3H)-one]
28 | 20 to 50 | CCC(O)CNc1nc(-c2nccc3c(=O)[nH]cnc23)cs1 (centres unmarked) [Compound 60, 8-(2-((2-hydroxybutyl)amino)thiazol-4-yl)pyrido[3,4-d]pyrimidin-4(3H)-one]
29 | 20 to 50 | O=c1[nH]cnc2c(-c3csc(NC4CCN(Cc5ccccc5)CC4)n3)nccc12 [Compound 61, 8-(2-((1-benzylpiperidin-4-yl)amino)thiazol-4-yl)pyrido[3,4-d]pyrimidin-4(3H)-one]
30 | < 20 | CCOC(=O)c1nc(-c2nccc3c(=O)[nH]cnc23)cs1 [Compound 62, ethyl 4-(4-oxo-3,4-dihydropyrido[3,4-d]pyrimidin-8-yl)thiazole-2-carboxylate]
31 | 20 to 50 | O=c1[nH]cnc2c(-c3cnn(CCO)c3)nccc12 [Compound 63, 8-(1-(2-hydroxyethyl)-1H-pyrazol-4-yl)pyrido[3,4-d]pyrimidin-4(3H)-one]
32 | 20 to 50 | O=c1[nH]cnc2c(-c3cnn(Cc4ccccc4)c3)nccc12 [Compound 64, 8-(1-benzyl-1H-pyrazol-4-yl)pyrido[3,4-d]pyrimidin-4(3H)-one]
